Results on one compound are retold here after patent publication US20170095522A1, “Compositions Containing Extracts of Curcuma SPP and Zingiber officinale Which Are Useful to Reduce Peripheral Inflammation and Pain” (INDENA S.p.A., priority 2015, published 2017).

Marks after values point to notes of the source that are not given here.

For series [1] the following is noted: cited from earlier work.
The conditions of series [2]: preliminary clinical trials; oral; cited from earlier work.
For series [3], the system named is patients with grade I or II hip osteoarthritis. Description: WOMAC scores (signs/symptoms of osteoarthritis) in 8-month hip osteoarthritis study. The format is in vivo, human. As for the experimental part: The clinical end-points (WOMAC score, Karnofsky Performance Scale Index and treadmill walking performance) were evaluated for the single agents and for the combination of the two vs. a placebo. […] 100 patients with grade I or II hip osteoarthritis, confirmed by X-ray analysis, were enrolled in the study. The patients were allowed to self-medicate with NSAIDs during the 8-month trial. […] Group C received a combination of curcumin and Zingiber officinale at the same doses as reported above for the single ingredients. The last group received a corresponding placebo. To ensure clinical homogeneity, the main location of the osteoarthritis in these subjects, and the source of most of their signs and symptoms, was in one or both hips. Primary osteoarthritis in one or both hips was diagnosed by X-ray investigation. The subjects had mild to moderate pain not adequately or completely controlled with anti-inflammatory drugs. They had to be able to perform the treadmill walking test and to understand all the questions in the WOMAC questionnaire. The questionnaire developed by the Western Ontario and McMaster Universities was applied to describe and rate the symptoms of OA. The questionnaire produces scores for the various symptoms of OA (WOMAC scores). The status of the OA signs/symptoms was evaluated by the investigator together with the patient on inclusion, and after 1 month, 4 months and 8 months treatment. The variations in the results (i.e. walking distance) were considered parametric. Non-parametric observations (e.g. the WOMAC score) were evaluated with analysis of variance (ANOVA with the Bonferroni correction). Considering the possible intra-individual and inter-individual data variations, at least 40 completing subjects were needed for this type of study (at least 40 subjects who completed the entire follow-up period in each group). This numerical value was established, on the basis of our previous study, with a view to eliminating spontaneous variability and time variations. OA and its related signs/symptoms, even under conditions of relative stability, may have a spontaneous degree of variability associated with periods of improvement. Clinical variations in signs/symptoms, walking distance, oedema and the Karnofsky scale may be due to various clinical and non-clinical (i.e.

For series [4] the test system is unchanged. The experiment in a line: Treadmill walking test, total pain-free distance. It counts as in vivo, human. The settings on record: 3 km/hour, 10% incline. As for the experimental part: The clinical end-points (WOMAC score, Karnofsky Performance Scale Index and treadmill walking performance) were evaluated for the single agents and for the combination of the two vs. a placebo. […] 100 patients with grade I or II hip osteoarthritis, confirmed by X-ray analysis, were enrolled in the study. The patients were allowed to self-medicate with NSAIDs during the 8-month trial. […] Group C received a combination of curcumin and Zingiber officinale at the same doses as reported above for the single ingredients. The last group received a corresponding placebo. To ensure clinical homogeneity, the main location of the osteoarthritis in these subjects, and the source of most of their signs and symptoms, was in one or both hips. Primary osteoarthritis in one or both hips was diagnosed by X-ray investigation. The subjects had mild to moderate pain not adequately or completely controlled with anti-inflammatory drugs. They had to be able to perform the treadmill walking test and to understand all the questions in the WOMAC questionnaire. […] On inclusion and after 1 month, 4 months and 8 months treatment, the patient's performance was evaluated with the treadmill test at a speed of 3 km/h and an incline of 10%. The total pain-free distance was recorded. […] Non-parametric observations (e.g. the WOMAC score) were evaluated with analysis of variance (ANOVA with the Bonferroni correction). […]

Series [5] shares this test system. Description: Karnofsky Performance Scale Index in 8-month hip osteoarthritis study. The format is in vivo, human. The protocol:
The clinical end-points (WOMAC score, Karnofsky Performance Scale Index and treadmill walking performance) were evaluated for the single agents and for the combination of the two vs. a placebo. […] 100 patients with grade I or II hip osteoarthritis, confirmed by X-ray analysis, were enrolled in the study. The patients were allowed to self-medicate with NSAIDs during the 8-month trial. […] Group C received a combination of curcumin and Zingiber officinale at the same doses as reported above for the single ingredients. The last group received a corresponding placebo. To ensure clinical homogeneity, the main location of the osteoarthritis in these subjects, and the source of most of their signs and symptoms, was in one or both hips. Primary osteoarthritis in one or both hips was diagnosed by X-ray investigation. The subjects had mild to moderate pain not adequately or completely controlled with anti-inflammatory drugs. They had to be able to perform the treadmill walking test and to understand all the questions in the WOMAC questionnaire. The Karnofsky Performance Scale Index was used to classify the patients in terms of functional impairment. The Karnofsky Performance Scale Index can be used to compare the effectiveness of different treatments and to assess the prognosis in individual patients. The lower the Karnofsky score, the worse the patient's functional impairment. The variations in the results (i.e. walking distance) were considered parametric. Non-parametric observations (e.g. the WOMAC score) were evaluated with analysis of variance (ANOVA with the Bonferroni correction). Considering the possible intra-individual and inter-individual data variations, at least 40 completing subjects were needed for this type of study (at least 40 subjects who completed the entire follow-up period in each group). This numerical value was established, on the basis of our previous study, with a view to eliminating spontaneous variability and time variations. OA and its related signs/symptoms, even under conditions of relative stability, may have a spontaneous degree of variability associated with periods of improvement. Clinical variations in signs/symptoms, walking distance, oedema and the Karnofsky scale may be due to various clinical and non-clinical (i.e.

Turning to `COc1cc(/C=C/C(=O)CC(=O)/C=C/c2ccc(O)c(OC)c2)ccc1O` [Curcumin, curcumin], the “Solubility in water and fats” value in series [1] is “poorly soluble”. In series [2], the Bioavailability result was “low bioavailability”. Further, the “WOMAC Pain mean score” value in series [3] (1 month treatment) is 13; in series [3] (R = recruitment (baseline)), 16. Besides, the entries for the “WOMAC Physical functions mean score” value in series [3] (1 month treatment) and in series [3] (R = recruitment (baseline)) were 45 and 55, respectively. The “WOMAC Stiffness mean score” value in series [3] (1 month treatment) is reported as 5; in series [3] (R = recruitment (baseline)), 7. Further, in series [3] (after one month's administration, p<0.05), the “WOMAC pain scores, result in words” value is recorded as “fell significantly”. The “Treadmill distance (median), total pain-free distance” value is 100* in series [4] (1 month treatment) and 77 in series [4] (R = recruitment (baseline)). Moreover, the “Karnofsky scale (median)” value in series [5] (1 month treatment, curcumin 1000 mg/day and/or Zingiber officinale extract 100 mg/day) is given as 77; in series [5] (4 months treatment, curcumin 1000 mg/day and/or Zingiber officinale extract 100 mg/day), 80*; in series [5] (8 months treatment, curcumin 1000 mg/day and/or Zingiber officinale extract 100 mg/day) it was 81*; in series [5] (Inclusion (baseline), hip osteoarthritis patients), 73. Moreover, in series [5] (8-month study), the “Karnofsky Scale scores, result in words” value is recorded as “significantly improved”.
